For one series, the system named is lpo-1 mutant nematodes. Set-up: species or system C. elegans. Conditions: in vivo.
In another series the test system is C. elegans. The series is described as follows: Growth rate, brood-size, pharyngeal pumping, dauer formation, dauer recovery and lifespan assays. Conditions: concentrations between 0.001 μg/ml and 25 μg/ml.
In the next series the test system is wild-type nematodes. The series is described as follows: Nile Red fat staining of wild-type nematodes (feeding RNAi screen; compound treatment). The series is classed as in vivo, C. elegans.
In series [1] the test system is daf-2(e1370) mutant nematodes. On the set-up: species or system C. elegans. The note with it: in vivo.
Series [2] concerns tub-1(nr2004) mutant nematodes. On the set-up: species or system C. elegans. Conditions: in vivo.
In series [3] the test system is tph-1(mg280) mutant nematodes. Briefly: Nile Red fat staining of tph-1(mg280) nematodes (RNAi epistasis analysis; compound treatment). The series is classed as in vivo, C. elegans. Conditions: adult tph-1(mg280) nematodes, 500 μM.
The test system of a further series is nematode progeny. The series is described as follows: Continuous AICAR treatment: growth and development of nematode progeny. The note with it: relative to untreated control progeny. The method, then: Adult wild-type nematodes, daf-2 (e1370), tph-1(mg280), and tub-1(nr2004) mutant nematodes were treated with 500 μM AICAR, and their fat content was detected using Nile Red as described above. […] To determine whether the effects of AICAR were reversible, AICAR-treated nematodes were then moved to culture plates without AICAR. […] The effect of continuous AICAR treatment was tested by seeding AICAR plates with five hermaphrodites, and then monitoring the effect of AICAR on the growth and development of nematode progeny relative to untreated control progeny.

The structures appear in SMILES notation. Entries after “also recorded” stand apart in the source; their conditions may differ.

Regarding `CC[C@H](C)C(=O)O[C@H]1C[C@@H](C)C=C2C=C[C@H](C)[C@H](CC[C@@H]3C[C@@H](O)CC(=O)O3)[C@H]21` [mevinolin], the “fat content / fat accumulation by Nile Red staining” value with lpo-1 mutant nematodes is “reduced; also recorded: decreased fat accumulation”.

`CCN(CC)c1ccc2nc3c4ccccc4c(=O)cc-3oc2c1` [Nile Red, 9-diethylamino-5H-benzo[α]phenoxazine-5-one]: the “adverse effects on growth rate, brood-size, pharyngeal pumping, dauer formation, dauer recovery, or lifespan” value in the series on C. elegans was “No adverse effects”.

Regarding `NC(=O)c1ncn([C@@H]2O[C@H](CO)[C@@H](O)[C@H]2O)c1N` [AICAR, 5-aminoimidazole-4-carbozamide ribonucleoside], in the series on wild-type nematodes (500 μM, wild-type and daf-2, tph-1, tub-1 mutant nematodes), the “time at which reduction in fat content was detectable” value is “twenty-four”. Besides, the “fat content relative to untreated control nematodes” value is on record as “progressive reduction in fat content” with wild-type nematodes (adult wild-type nematodes, 500 μM); “progressive reduction in fat content” in series [1]; “progressive reduction in fat content” in series [2]; “progressive reduction in fat content” in series [3]. Besides, in the series with wild-type nematodes (treated nematodes moved to culture plates without AICAR), the “reversibility of fat reduction” value was “regained their fat content”. For the same compound, the “effect on growth and development of progeny” value in the series on nematode progeny is given as “dramatic retardation of larval growth accompanied by depleted fat stores”.

These data come from US20070087378A1, “Polynucleotide and polypeptide fat metabolism regulators and uses thereof” (priority 2002, published 2007).
